Measured values from US8883763B2 (Universite Joseph Fourier, priority 2010, dated 2014).

Legend:
bovine brain tubulin = experiment: In vitro tubulin polymerization test (turbidimetry at 350 nm); format: biochemical; settings: molecules at 50 μM, calculated at t=3000 s, DMSO control = 100%
Experimental: Tubulin was purified from bovine brain using the polymerization-depolymerization process described by (Castoldi M and Popov A V. Protein Expr Purif. 2003, 32(1): pp 83-8).
The in vitro tubulin polymerization tests (at 50 μM) were carried out in the presence of GTP 1 mM in BRB80 buffer (80 mM K-PIPES pH 6.8, 1 mM MgCl2, 1 mM EGTA) at 37° C. The tests were carried out in 96-microwell plates (half-wells) (Costar plates, Corning #3695), in triplicate with a final volume of 70 μl. Tubulin assembly was carried out in the presence of compound 6 or its analogues (all used at a concentration of 50 μM) and was monitored by turbidimetry measurement at 350 nm using a spectrophotometer (Spectramax More, Molecular Devices).
Measurement of the effect of a molecule on polymerization was calculated at t=3000 s taking the value of the control at the same time as being equal to 100%.

PP1α (PP1CA) = target: T1, PP1α (PP1CA) (Oryctolagus cuniculus, UniProt P62139); experiment: Protein phosphatase test (PP1 activity, DiFMUP fluorescent substrate); format: biochemical; settings: PP1CA at 80 mU, fluorescent substrate (50 μM), molecules from 50 μM to 50 nM; read-out: PP1 Inhibition IC50
T1 construct: purchased New England Biolabs P0754
T1 sequence (P62139 whole entry): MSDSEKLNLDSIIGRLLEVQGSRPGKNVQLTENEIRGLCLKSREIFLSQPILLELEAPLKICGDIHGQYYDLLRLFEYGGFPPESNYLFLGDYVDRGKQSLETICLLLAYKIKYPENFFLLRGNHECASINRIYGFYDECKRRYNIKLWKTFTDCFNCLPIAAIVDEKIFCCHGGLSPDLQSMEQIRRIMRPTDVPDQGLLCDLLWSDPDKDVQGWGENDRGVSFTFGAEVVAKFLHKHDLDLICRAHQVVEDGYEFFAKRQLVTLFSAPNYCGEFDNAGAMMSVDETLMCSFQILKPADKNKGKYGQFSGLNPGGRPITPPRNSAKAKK
Experimental: FIG. 13 presents the graph showing the inhibition of the PP1Cα activity by compound 6 in vitro. PP1Cα (New England Biolabs, 30 mU/well) was incubated in the presence of compound 6 at different concentrations and a fluorescent substrate, diFMUP.
Determination of the 1050 was carried out with PP1CA at 80 mU in the presence of a fluorescent substrate
(50 μM) and different concentrations of molecules from 50 μM to 50 nM.
For the activity tests, PP1α (New England Biolabs # P0754) was used at a final concentration of 30 mU or 80 mU for the screening of all the analogues. 6,8-difluoro-4-methylumbelliferyl phosphate (DiFMUP, Invitrogen # D6567) was used as fluorescent substrate at a concentration of […]. All the tests were carried out in a final volume of 100 μl, at 37° C. in 96-microwell plates (Greiner #655096).
Compound 6, combretastatin A4 (CA-4) as well as all the analogues were diluted in 50 μl of PP1 buffer (100 mM Tris-HCl, pH 7.5, 4 mM DTT, 0.2 mM EDTA, 0.5 mM MnCl2) from 50 μM to 50 nM. Corresponding quantities of DMSO were added to control wells. PP1α (30 or 80 mU in 30 μl of PP1 buffer) was added to each well. After incubating for 15 minutes at AT, the substrate was added (in 20 μl of PP1 buffer). After incubating for 20 minutes at 37° C., the fluorescence was measured in a plate fluorometer at 355-460 nm in order to assay the phosphatase activity. The test was carried out three times in duplicate for each condition.

HMEC cells = experiment: Proliferation of HMEC cells (GI50); format: cell-based; settings: Homo sapiens, 120 h, 50 μM to 1 nM for 5 days
Experimental: The HMECs were seeded at 10% confluence and incubated with the molecules at different concentrations (from 50 μM to 1 nM) for 5 days. The GI50 (50% Growth Inhibition) defines the concentration inducing a 50% reduction in proliferation with respect to the control.

HeLa cells = experiment: Indirect immunofluorescence: effect on HeLa cells (mitotic arrest, microtubule depolymerization); format: cell-based, human; parameters: key to Effect on Hela at 25 μM / Effect on Hela at 100 μM / Effect on Hela at 50 and 100 μM / Effect on Hela at 50 μM: —: −: no activity on the cells at 25 μM (if there is an effect at high concentrations, this is specified in the table).; *: weak activity (MA and/or slight depolymerization of the MTs and/or slight inhibition of proliferation),; **: average activity (MA and/or moderate depolymerization of the MTs and/or moderate inhibition of proliferation),; ***: strong activity (MA and/or pronounced depolymerization of the MTs and/or pronounced inhibition of proliferation),; ****: very strong activity (MA and/or very pronounced depolymerization of the MTs and/or strong inhibition of proliferation); settings: 24 hours; for Effect on Hela at 25 μM: mitotic index and/or depolymerization of the MTs
Experimental: The cells were cultured on slides in 24-well plates and incubated for 24 hours with molecule 6 at different concentrations from 1 to 10 μM.
Corresponding quantities of DMSO were added to the culture medium in the control wells.
The cells were fixed in a solution of PBS with 4% paraformaldehyde (PFA) and 0.1% glutaraldehyde (GA), for 15 minutes and centrifuged at 300 g for the last 10 minutes of the fixing. The slides were rinsed in PBS and the free aldehyde groups were reduced by two successive 5-minute incubations in PBS containing 1 mg/ml of NaBH4.
After one washing with PBS then another with PBST (PBS with 0.5% triton-X-100), the cells are incubated for 30 minutes at ambient temperature with anti α-tubulin monoclonal antibody solution (DM1A clone, Sigma # T6199) diluted to 1:200 in PBST. After 3 10-minute washings with PBST, the cells are incubated for 30 minutes at ambient temperature in a solution of goat anti-mouse polyclonal antibodies coupled with Alexa 488 (1:1000, Molecular Probes # A-11029) and phalloidin coupled with Texas red to label the actin (1:2000, Molecular Probes # T7471), in PBST also containing Hoechst 33258 (1 μg/ml) for labelling the DNA. After 3 10-minute washings in PBST, the slides are mounted on plates in Fluorsave™ mounting medium (Calbiochem #345789) and are observed and analyzed using an Axiovert 200M inverted fluorescence microscope (Zeiss®). The images are produced with a Plan-Apochromat 63× oil objective (Zeiss®) by means of a Coolsnap HQ camera (Roper Scientifics®) and with Metamorph acquisition software (Universal Imaging™ Corporation).
In order to evaluate the effect of the analogues of compound 6 on PHFs and HeLa cells, the immunofluorescence technique described above was used and adapted to a 96-well dish format. The cells were seeded in glass-bottomed 96-well dishes and incubated for 24 hours in the presence of different concentrations of molecules from 100 μM to 50 nM. And in the same way as described above, the cells were fixed and immunolabelled. Analysis of the phenotypes as well as counting the mitotic cells were carried out with the same microscope but using a ×40 objective (Olympus). The molecules were compared with each other with respect to the mitotic arrest induced on PHFs and HeLa cells at 25 and 0.3 μM.
The mitotic index and/or the depolymerization of the MTs were evaluated at 25 μM.

SMILES	Tubulin polymerization inhibition (bovine brain tubulin)	IC50 (PP1α (PP1CA))	GI50 (HMEC cells)	Effect on Hela at 25 μM (HeLa cells)	Effect on Hela at 50 and 100 μM (HeLa cells)
COc1ccc(COc2nc(-c3ccc(OC)cc3)c(C(F)(F)F)c3ccc(OC)cc23)cc1 [Compound 70, 7-Methoxy-1-(4-methoxybenzyloxy)-3-(4-methoxyphenyl)-4-(trifluoromethyl)isoquinoline]	+ ((+) signifies that the molecule induces tubulin assembly inhibition in vitro comprised between 6 and 25% of the DMSO control.)	10 to 24 µM	25 to 50 µM	—	
COc1ccc(-c2[nH]c(=O)c3ccccc3c2N)cc1 [Compound 8]	— ((−) signifies that the molecule induces little or no tubulin assembly inhibition in vitro: 0+ or − −5% of the DMSO control.)	> 50 µM	> 50 µM	—	
COc1ccc(-c2c([N+](=O)[O-])c3ccc(OC)cc3c(=O)n2CCO)cc1 [Compound 68, 2-(2-Hydroxyethyl)-7-methoxy-3-(4-methoxyphenyl)-4-nitroisoquinoline-1(2H)-one]	— ((−) signifies that the molecule induces little or no tubulin assembly inhibition in vitro: 0+ or − −5% of the DMSO control.)	> 50 µM	25 to 50 µM	—	
COc1ccc(-c2[nH]c(=O)c3cc(OC)ccc3c2NCCOCCO)cc1 [Compound 50, 4-(2-(2-hydroxyethoxy)ethylamino)-7-methoxy-3-(4-methoxyphenyl)isoquinolin-1(2H)-one]	+++ ((+++) signifies that the molecule induces tubulin assembly inhibition in vitro of more than 50% with respect to the DMSO control.)	> 50 µM	25 to 50 µM	—	
COc1ccc(-c2c([N+](=O)[O-])c3ccc(OC)cc3c(=O)n2N)cc1 [Compound 62, 2-Amino-7-methoxy-3-(4-methoxyphenyl)-4-nitroisoquinoline-1(2H)-one]	— ((−) signifies that the molecule induces little or no tubulin assembly inhibition in vitro: 0+ or − −5% of the DMSO control.)	> 50 µM	1 to 25 µM	***	
COc1ccc(-c2nc(N)c3cc(OC)ccc3c2[N+](=O)[O-])cc1 [Compound 71, 1-Amino-7-methoxy-3-(4-methoxyphenyl)-4-nitroisoquinoline]	+ ((+) signifies that the molecule induces tubulin assembly inhibition in vitro comprised between 6 and 25% of the DMSO control.)	> 50 µM	25 to 50 µM	—	
Nc1c(-c2ccccc2)[nH]c(=O)c2ccccc12 [Compound 2]	— ((−) signifies that the molecule induces little or no tubulin assembly inhibition in vitro: 0+ or − −5% of the DMSO control.)	> 50 µM	25 to 50 µM	—	
COc1ccc(-c2cc3ccc(OC)cc3c(=O)n2N)cc1 [Compound 61, 2-Amino-7-methoxy-3-(4-methoxyphenyl)isoquinoline-1(2H)-one]	— ((−) signifies that the molecule induces little or no tubulin assembly inhibition in vitro: 0+ or − −5% of the DMSO control.)	> 50 µM	> 50 µM	—	
COc1ccc2c(N)c(-c3ccccc3)[nH]c(=O)c2c1 [Compound 10]	+ ((+) signifies that the molecule induces tubulin assembly inhibition in vitro comprised between 6 and 25% of the DMSO control.)	> 50 µM	> 50 µM	—	*
COc1ccc(-c2[nH]c(=O)c3cc(OC)ccc3c2O)cc1 [Compound 41, 4-Hydroxy-7-methoxy-3-(4-methoxyphenyl)isoquinolin-1(2H)-one]	— ((−) signifies that the molecule induces little or no tubulin assembly inhibition in vitro: 0+ or − −5% of the DMSO control.)	> 50 µM	1 to 25 µM	—	
COc1ccc(-c2cc3ccc(OC)cc3c(=O)n2CCO)cc1 [Compound 67, 2-(2-Hydroxyethyl)-7-methoxy-3-(4-methoxyphenyl)isoquinoline-1(2H)-one]	— ((−) signifies that the molecule induces little or no tubulin assembly inhibition in vitro: 0+ or − −5% of the DMSO control.)	25 to 50 µM	25 to 50 µM	—	
COc1ccc(-c2[nH]c(=O)c3ccccc3c2[N+](=O)[O-])cc1 [Compound 7]	+ ((+) signifies that the molecule induces tubulin assembly inhibition in vitro comprised between 6 and 25% of the DMSO control.)	> 50 µM	1 to 25 µM	***	
COc1ccc(-c2cc3ccc(OC)cc3c(OC)n2)cc1 [Compound 64, 1,7-Dimethoxy-3-(4-methoxyphenyl)isoquinoline]	— ((−) signifies that the molecule induces little or no tubulin assembly inhibition in vitro: 0+ or − −5% of the DMSO control.)	10 to 24 µM	> 50 µM	—	
COc1ccc(-c2cc3ccc(OC)cc3c(=O)[nH]2)cc1 [Compound 4, 7-methoxy-3-(4-methoxyphenyl)isoquinolin-1(2H)-one]	— ((−) signifies that the molecule induces little or no tubulin assembly inhibition in vitro: 0+ or − −5% of the DMSO control.)	> 50 µM	> 50 µM	—	**
